Laboratory results from US20250144069A1, “BILOBALIDE DERIVATIVE COMPOUNDS FOR TREATING NEUROLOGICAL DISEASES AND CANCERS” (The Chinese University of Hong Kong, priority 2023, published 2025).

Assays:
Assay type in all cases: cell-based
[1] = system: HMC3 cells; conditions: then 50 μM compound 22 h
[2] = system: HMC3 cells; assay: Lipid peroxidation level by flow cytometry using C11-BODIPY; conditions: HMC3, 50 nM RSL3 2 h, then 50, 25 and 12.5 μM compound 3 h
Experimental: (§1) For flow cytometry, HMC3 cells (seeded 50,000 cells per well on 24-well plate one day prior to the experiment) were pretreated with 50 nM RSL3 for 2 h. […] After which medium was replaced with BODIPY™ 581/591C11 (10 μM, Invitrogen) or CellROX™ Green (5 μM, Invitrogen) for 30 min staining. Cells were then washed 3 times with PBS and collected. Fluorescence was measured by BD FACSympgony A5.2 SORP Flow Cell Analyzer (BD Biosciences).
Disequilibrium ROS level acts as a direct initiator of lipid peroxidation, which is one of the major hallmarks of ferroptosis. In this example, HMC3 cells according to the conditions in Table 4 were subjected to measurement of lipid peroxidation level using flow cytometry and the lipid peroxidation sensor C11-BODIPY.
For flow cytometry, HMC3 cells (seeded 50,000 cells per well on 24-well plate one day prior to the experiment) were pretreated with 50 nM RSL3 for 2 h. After RSL3 treatment, medium was replaced by DMSO (0.1%) only, SXQ087-1 (10, 5 and 2.5 μM), following by 3 h treatment. After which medium was replaced with BODIPY™ 581/591C11 (10 μM, Invitrogen) for 30 min staining. Cells were then washed 3 times with PBS and collected. Fluorescence was measured by BD FACSympgony A5.2 SORP Flow Cell Analyzer (BD Biosciences).
Lipid peroxidation is one of the major hallmarks of ferroptosis. In this example, HMC3 cells according to the conditions in Table 5 were subjected to measurement of lipid peroxidation level using flow cytometry and the lipid peroxidation sensor C11-BODIPY.

[3] = system: HMC3 cells; assay: Intracellular ROS level by CellROX (fluorescent imaging and flow cytometry); conditions: HMC3, 50 nM RSL3 2 h, then 50 μM compound 3 h
Experimental: as §1
For fluorescent imaging, 10,000 cells per well of HMC3 were laid on cover slip and incubated overnight. After the same compound treatment as described above in this section, cells were subsequently incubated with CellROX™ Green and Hoechst 34580 (MCE) for 30 min. After incubation, cells were washed 3 times gently with PBS. Cover slips were then attached to glass slides by Anti-Fade Fluorescence Mounting Medium (Abcam) and imaged via ECLIPSE Ti fluorescence microscope (Nikon). Fluorescent intensity was quantified using imageJ software.
To further evaluate the anti-ferroptotic properties of bilobalide analogues, we tested its effect on the total level of intracellular reactive oxygen species (ROS), we performed fluorescent staining on the HMC3 cell line using CellROX, which is a probe which can emit green fluorescence after reacting with ROS. […]

[4] = system: HMC3 cells; assay: Cytotoxicity, cell viability of HMC3 cells; conditions: 24 h treatment
Source text: Now referring to FIG. 11A, a chart showing the cell viability (%) of HMC3 cells treated with SXQ087-1, XBB-037 or bilobalide.

[5] = system: HMC3 microglial cell line; assay: RSL3-induced ferroptosis model, cell viability (CCK-8)

CC(C)(C)[C@]1(O)C[C@@H]2OC(=O)C[C@@]23C(=O)O[C@@H]2N(c4ccc(N)cc4)C(=O)[C@H](OC(=O)c4ccccc4)[C@]213 [XBB-037, 4-(3aS,5aS,8R,9R,10aS)-8-(benzoyloxy)-9-(tert-butyl)-9-hydroxy-2,4,7-trioxohexahydro-4H,9H-furo[3″,2″:2′,3′]cyclopenta[1′,2′:3,4]furo[2,3-b]pyrrol-6(5aH)-yl)benzenaminium chloride]
protection against FIN56-induced cell death (cell viability) ([1]; HMC3, FIN56 2 h): effectively suppressed FIN56-induced cell death
protection against ML162 lethality (cell viability) ([1]; HMC3, ML162 2 h): alleviated the lethality of ML162
protection against ML210 lethality (cell viability) ([1]; HMC3, ML210 2 h): alleviated the lethality of ML210
protection against erastin-induced lethality (cell viability) ([1]; HMC3, erastin 2 h): suppressed erastin-induced lethality
lipid peroxidation level (C11-BODIPY) [2]: significant down-regulation of RSL3-induced lipid peroxidation accumulation in a dose-dependent manner
intracellular ROS level (CellROX fluorescent staining) [3]: significantly reduced intracellular ROS level
cytotoxicity (cell viability) [4]: no significant cytotoxicity
inhibition of RSL3-induced ferroptosis (phenotypic screening, cell viability) ([5]; HMC3, RSL3 200 nM 2 h, then 50 μM compound 22 h): effectively inhibit ferroptosis
shift of RSL3 dose-dependent viability curve ([5]; HMC3, multiple doses of RSL3, 50 μM compound): diminished RSL3 lethality
